Broadly, the pIC50 is the IC50 on a negative log10 scale, so that one unit is a factor of ten.

pIC50: −log10 of the molar value. Some results are limits rather than exact numbers.

The values below come from the Kinase Knowledgebase extract (Sharma et al. 2016).

In the assay the target is MAPK14 (UniProt Q16539). The assay can be described thus: Inhibition of MAPK14 Kinase Activity.
Sequence of MAPK14 (Q16539 whole entry, looked up): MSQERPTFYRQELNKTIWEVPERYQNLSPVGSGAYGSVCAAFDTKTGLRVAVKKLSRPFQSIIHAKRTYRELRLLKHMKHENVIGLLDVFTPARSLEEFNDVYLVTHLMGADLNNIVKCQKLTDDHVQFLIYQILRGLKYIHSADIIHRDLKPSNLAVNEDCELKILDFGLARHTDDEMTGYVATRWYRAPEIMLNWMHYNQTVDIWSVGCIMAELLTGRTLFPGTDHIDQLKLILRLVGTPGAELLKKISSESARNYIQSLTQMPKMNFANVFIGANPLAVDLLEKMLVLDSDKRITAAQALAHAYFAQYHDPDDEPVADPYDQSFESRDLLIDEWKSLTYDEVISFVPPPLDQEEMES

Take `COc1nccc(-c2c(-c3ccc(F)cc3)ncn2[C@H](CO)c2ccccc2)n1`: the pIC50 was > 4.30. Take `C[C@@H](CO)n1cnc(-c2ccc(F)cc2)c1-c1ccncn1`: the negative logarithm of the IC50 (pIC50) was > 4.30. `CCCSc1nccc(-c2c(-c3ccc(F)cc3)ncn2C(C)CN(C)C)n1` (stereo unspecified): the pIC50 is > 4.30. For `CC[C@H](CO)n1cnc(-c2ccc(F)cc2)c1-c1ccnc(OC)n1` the value was > 4.30; for `CCCSc1nccc(-c2c(-c3ccc(F)cc3)ncn2[C@H](CO)c2ccccc2)n1`, > 4.30.

As to `COc1nccc(-c2c(-c3ccc(F)cc3)ncn2C(C)CO)n1` (stereo unspecified), the pIC50 is > 4.30.

For the molecule `COc1nccc(-c2c(-c3ccc(F)cc3)ncn2C(C)CN(C)C)n1` (stereo unspecified), the pIC50 was > 4.30. As for `CNc1nccc(-c2c(-c3ccc(F)cc3)ncn2[C@H](CO)c2ccccc2)n1`, the pIC50 is > 4.30.

As to `COc1nccc(-c2c(-c3ccc(F)cc3)ncn2C(CO)CO)n1`, the pIC50 is > 4.30. For the molecule `C[C@@H](CO)n1cnc(-c2ccc(F)cc2)c1-c1ccnc(Nc2ccccc2)n1`, the pIC50 is > 4.30. For `COc1nccc(-c2c(-c3ccc(F)cc3)ncn2[C@H](CO)Cc2ccccc2)n1` the value was > 4.30; for `CCCSc1nccc(-c2c(-c3ccc(F)cc3)ncn2C(CO)CO)n1`, > 4.30. For the molecule `CCCSc1nccc(-c2c(-c3ccc(F)cc3)ncn2[C@H](CC)CO)n1`, the pIC50 is > 4.30. In the case of `CCCSc1nccc(-c2c(-c3ccc(F)cc3)ncn2[C@@H](CC)CO)n1`, the pIC50 is > 4.30.

For `CNc1nccc(-c2c(-c3ccc(F)cc3)ncn2[C@@H](CO)c2ccccc2)n1`, the pIC50 was > 4.30. For `COc1nccc(-c2c(-c3ccc(F)cc3)ncn2[C@@H](CO)c2ccccc2)n1` the value was > 4.30; for `COc1nccc(-c2c(-c3ccc(F)cc3)ncn2[C@@H](CO)Cc2ccccc2)n1`, > 4.30.

Take `CCCSc1nccc(-c2c(-c3ccc(F)cc3)ncn2[C@H](C)CO)n1`: the pIC50 is > 4.30. For `COc1nccc(-c2c(-c3ccc(F)cc3)ncn2C(C)COc2ccccc2)n1` (stereo unspecified) the value was > 4.30; for `CNc1nccc(-c2c(-c3ccc(F)cc3)ncn2C(C)CO)n1` (stereo unspecified), > 4.30; for `CC[C@@H](CO)n1cnc(-c2ccc(F)cc2)c1-c1ccnc(NC)n1`, > 4.30.

In the case of `CCCSc1nccc(-c2c(-c3ccc(F)cc3)ncn2[C@@H](CO)c2ccccc2)n1`, the negative-log IC50 (pIC50) is > 4.30. For `CCCSc1nccc(-c2c(-c3ccc(F)cc3)ncn2[C@@H](C)CO)n1` the value was > 4.30. Consider `CC[C@@H](CO)n1cnc(-c2ccc(F)cc2)c1-c1ccnc(OC)n1`, for which the pIC50 is > 4.30. Turning to `CC[C@H](CO)n1cnc(-c2ccc(F)cc2)c1-c1ccnc(NC)n1`, the pIC50 is > 4.30.

Take `CCCSc1nccc(-c2c(-c3ccc(F)cc3)ncn2C(C)CC(=O)OC)n1` (stereo unspecified): the pIC50 was > 4.30.
